Key:
[1] = molar heat capacity at constant pressure; settings: 101.33 kPa, Crystal, DSC
[2] = Crystal, Transpiration method

O=C(O)c1ccccc1 [benzoic acid]
[1]
Settings	molar heat capacity at constant pressure [J/K/mol]
318.8 K	122.9
319.2 K	127.1
319.7 K	130.8
320.1 K	134.3
320.6 K	137.7
321 K	140.7
321.4 K	143.4
321.9 K	146.1
322.3 K	148.4
322.7 K	150.5
323.1 K	152.4
323.5 K	154.1
324 K	155.6
324.4 K	157
324.8 K	158.3
325.2 K	159.5
325.6 K	160.4
326 K	161.3
326.4 K	162
326.8 K	162.7
327.2 K	163.4
327.6 K	163.9
328 K	164.3
328.3 K	164.8
328.7 K	165.1
329.1 K	165.3
329.5 K	165.6
329.9 K	165.7
330.3 K	165.9
330.6 K	166
331 K	166.3
331.4 K	166.3
331.8 K	166.4
332.1 K	166.4
332.5 K	166.4
332.9 K	166.5
333.3 K	166.5
333.6 K	166.5
334 K	166.6
334.4 K	166.6
334.8 K	166.5
335.1 K	166.6
335.5 K	166.7
335.9 K	166.7
336.2 K	166.7
336.6 K	166.7
337 K	166.7
337.3 K	166.7
337.7 K	166.9
338.1 K	166.9
338.5 K	167
338.8 K	167.1
339.2 K	167.2
339.6 K	167.3
339.9 K	167.4
340.3 K	167.5
340.7 K	167.6
341 K	167.7
341.4 K	167.8
341.8 K	167.9
342 K	168

c1ccc2ccccc2c1 [naphthalene]
[2]
Settings	vapor or sublimation pressure [kPa]
288.2 K	0.00418
290.7 K	0.00548
293.2 K	0.00698
298.2 K	0.01114
303.2 K	0.01811
308 K	0.02903
313.1 K	0.04408
318.2 K	0.0671
323.1 K	0.102
328.1 K	0.1538
330.5 K	0.1867
333 K	0.2235

N#Cc1ccc2ccccc2c1 [2-naphthalenecarbonitrile]
Settings	molar heat capacity at constant pressure, [1] [J/K/mol]	vapor or sublimation pressure, [2] [kPa]
313.8 K	182.1	–
314.4 K	182.8	–
314.9 K	183.3	–
315.3 K	183.7	–
315.5 K	–	0.00091
315.8 K	184.2	–
316.3 K	184.6	–
316.8 K	185	–
317.3 K	185.3	–
317.8 K	185.4	–
318.2 K	185.5	–
318.4 K	–	0.00122
318.7 K	185.9	–
319.2 K	186.1	–
319.6 K	186.3	–
320.1 K	186.6	–
320.5 K	186.8	0.00152
320.9 K	187.1	–
321.4 K	187.4	–
321.8 K	187.5	–
322.2 K	187.8	–
322.4 K	–	0.00195
322.7 K	188.1	–
323.1 K	188.4	–
323.5 K	188.6	–
323.9 K	188.9	–
324.4 K	189.1	–
324.5 K	–	0.00237
324.8 K	189.5	–
325.2 K	189.8	–
325.6 K	190.2	–
326 K	190.7	–
326.4 K	191.2	0.00284
326.8 K	191.5	–
327.1 K	191.8	–
328.2 K	–	0.0035
331.3 K	–	0.00463
333.2 K	–	0.00579
334.2 K	–	0.00641

Reference: the NIST ThermoML archive (doi:10.1016/j.tca.2018.07.026)
